From patent US20080011191A1, “Novel Azo Compound or Salt, Ink Composition Comprising Such Azo Compound, and Colored Article” (priority 2004, published 2008)

What was measured:
Type in all cases: physicochemical
[1] = Xenon light fastness test of a recorded image; settings: xenon weatherometer Ci4000, 50 hours, 0.36 W/m^2, 2 mm glass plate and air layer, printed glossy paper and plain paper
Description: (§1) A liquid of a composition shown in the following Table 3 is prepared using a compound (Compound No. 1) obtained in (2) of the above Example 1, followed by filtration with a 0.45 μm membrane filter to obtain each water-based ink composition for inkjet recording. Ion exchange water was used as water. In addition, water and ammonia water were added thereto to adjust the pH of the ink composition to 7 to 10 and a total amount of the ink composition to 100 parts. The test using the compound obtained in (2) of Example 1 is Example 7. Similarly the tests using the compounds obtained in Examples 2 to 6 are Examples 8 to 12 respectively.
(§2) Using an inkjet printer (Pixus 860i from Canon Inc.), inkjet recording was conducted on glossy paper having an ink-receiving layer containing a porous white inorganic substance (Professional Photopaper PR-101 from Canon Inc.). In inkjet recording, an image pattern was made so as to obtain gradations of several stages in printing density, and a print was made.
Using a xenon weatherometer Ci4000 (from ATLAS Co., Ltd.), pieces of testing paper of printed glossy paper and plain paper from Canon, Inc., on which a glass plate having a thickness of 2 mm and an air layer were set up, were irradiated for 50 hours at illuminance of 0.36 W/m^2, and color difference (ΔE) before and after the test was measured and evaluated on 3 levels. • ΔE≦10 . . . ∘ • 10<ΔE≦20 . . . Δ • 20<ΔE . . . x The results are shown in Table 5. (E) Ozone Gas Fastness Test of a Recorded Image

[2] = Ozone gas fastness test of a recorded image; settings: ozone 40 ppm, 60% RH, 24° C., 3 hours, glossy paper
Description: A liquid of a composition shown in the following Table 3 is prepared using a compound (Compound No. 1) obtained in (2) of the above Example 1, followed by filtration with a 0.45 μm membrane filter to obtain each water-based ink composition for inkjet recording. Ion exchange water was used as water. In addition, water and ammonia water were added thereto to adjust the pH of the ink composition to 7 to 10 and a total amount of the ink composition to 100 parts. The test using the compound obtained in (2) of Example 1 is Example 7. Similarly the tests using the compounds obtained in Examples 2 to 6 are Examples 8 to 12 respectively. Using an inkjet printer (Pixus 860i from Canon Inc.), inkjet recording was conducted on glossy paper having an ink-receiving layer containing a porous white inorganic substance (Professional Photopaper PR-101 from Canon Inc.). In inkjet recording, an image pattern was made so as to obtain gradations of several stages in printing density, and a print was made. Using an ozone weatherometer (from Suga Testing Machine Co., Ltd.), a piece of testing paper printed on glossy paper from Canon, Inc. was left for 3 hours under conditions of ozone concentration of 40 ppm, humidity of 60% RH and temperature of 24° C., and color difference (ΔE) before and after the test was measured and evaluated on 3 levels. • ΔE≦20 . . . ∘ • 20<ΔE≦40 . . . Δ • 40<ΔE . . . x

[3] = Evaluation of hue and vividness of a recorded image on glossy paper (colorimetry, GRETAG SPM50); settings: for Vividness C*: C*=((a*)^2+(b*)^2)^1/2, glossy paper PR-101; for Vividness C* (3-level evaluation): glossy paper PR-101; for Brilliance L* / Hue a* / Hue b*: inkjet print of Table 3 ink (3.0 parts compound) on glossy paper Professional Photopaper PR-101
Description: as §1, §2
Hue and vividness in a recorded image : recorded paper was measured using a colorimetric system (GRETAG SPM50 from GRETAG Co., Ltd.), values of L*, a* and b* were calculated, and for vividness, C*=((a*)^2+(b*)^2)^1/2 was calculated from color level (a* and b*) where color level a* of each recording paper is similar. And vividness was evaluated on the following 3 levels judging from the measured results and the results are shown jointly in Table 4. • 90≦C* . . . ∘ • 80≦C*<90 . . . Δ

| SMILES | Light fastness (color difference ΔE before and after the test, 3 levels) [1] | Ozone fastness (color difference ΔE before and after the test, 3 levels) [2] | Vividness C* [3] | Vividness C* (3-level evaluation) [3] | Brilliance L* [3] | Hue a* [3] | Hue b* [3] |
| --- | --- | --- | --- | --- | --- | --- | --- |
| COc1ccc2nc(N=Nc3c(NCCS(=O)(=O)O)nc(NCCS(=O)(=O)O)c(C#N)c3C)sc2c1 [Compound No. 4] | ∘ (ΔE≦10) | ∘ (ΔE≦20) | – | – | – | – | – |
| Cc1c(C#N)c(NCCS(=O)(=O)O)nc(NCCS(=O)(=O)O)c1N=Nc1nc2ccc(S(C)(=O)=O)cc2s1 [Compound No. 3] | ∘ (ΔE≦10) | ∘ (ΔE≦20) | – | – | – | – | – |
| Cc1c(C#N)c(NCCS(=O)(=O)O)nc(NCCS(=O)(=O)O)c1N=Nc1nc2ccc(C(=O)O)cc2s1 [Compound No. 5] | ∘ (ΔE≦10) | ∘ (ΔE≦20) | – | – | – | – | – |
| Cc1c(C#N)c(NCCS(=O)(=O)O)nc(NCCS(=O)(=O)O)c1/N=N/c1snc2ccc(S(=O)(=O)O)cc12 [Compound No. 8] | ∘ (ΔE≦10) | ∘ (ΔE≦20) | – | – | – | – | – |
| Cc1c(C#N)c(NCCS(=O)(=O)O)nc(NCCS(=O)(=O)O)c1N=Nc1nc2ccc(S(=O)(=O)O)cc2s1 [Compound No. 2] | ∘ (ΔE≦10) | ∘ (ΔE≦20) | 101.9 | ∘ (90≦C*) | 68.3 | 53.5 | 86.8 |
| Cc1c(C#N)c(NCCS(=O)(=O)O)nc(NCCS(=O)(=O)O)c1N=Nc1nc2ccccc2s1 [Compound No. 1] | ∘ (ΔE≦10) | ∘ (ΔE≦20) | 109.7 | ∘ (90≦C*) | 66.8 | 53.7 | 96.1 |
